Data published in patent US9981928B2, “Aryl sulfide derivatives and aryl sulfoxide derivatives as acaricides and insecticides” (BAYER CROPSCIENCE AKTIENGESELLSCHAFT, priority 2013, dated 2018).
Like-named read-outs stand apart in the source and are kept apart here.

Assay: log P determination by HPLC on reversed-phase columns (C 18), analogously to OECD Guideline 117
Assay type: physicochemical
Details: for logP (HCOOH): LC-MS in the acidic range, pH 2.7, 0.1% aqueous formic acid / acetonitrile; for logP (HCOOH) / logP (neutral): HPLC reversed-phase C 18; for logP (neutral): LC-MS in the neutral range, pH 7.8, 0.001 molar aqueous ammonium hydrogencarbonate / acetonitrile
Description: The log P values were determined analogously to OECD Guideline 117 (EC Directive 92/69/EEC) by HPLC (high-performance liquid chromatography) using reversed-phase columns (C 18), by the following methods:
[a] The LC-MS determination in the acidic range was effected at pH 2.7 with 0.1% aqueous formic acid and acetonitrile (contains 0.1% formic acid) as eluents; linear gradient from 10% acetonitrile to 95% acetonitrile. log P^[a] is also referred to as log P(HCOOH). [b] LC-MS determination in the neutral range was effected at pH 7.8 with 0.001 molar aqueous ammonium hydrogencarbonate solution and acetonitrile as eluents; linear gradient from 10% acetonitrile to 95% acetonitrile. log P^[…] is also referred to as log P(neutral).

[1] = reversed-phase C18 HPLC column, acidic range, pH 2.7, 0.1% aqueous formic acid and acetonitrile, read-out: log P[a] / log P(HCOOH)
[2] = reversed-phase C18 HPLC column, neutral range, pH 7.8, 0.001 molar aqueous ammonium hydrogencarbonate and acetonitrile, read-out: log P[b] / log P(neutral)
[3] = acidic range, pH 2.7, 0.1% aqueous formic acid and acetonitrile, read-out: log P[a] / log P(HCOOH)

Compound	logP (HCOOH)	logP (neutral)	chromatographic logP [1]	further results
Cc1cc(F)c(-n2c(=O)n(C(C)C)c(=O)n2C(C)(C)C)cc1[S+]([O-])CC(F)(F)F (racemic) [Example 152]	3.40	3.35		
Cc1cc(F)c(-n2c(=O)n(C(C)C)c(=O)n2CC(F)(F)F)cc1[S+]([O-])CC(F)(F)F (racemic) [Example 153]	2.95	3.04		
Cc1cc(F)c(-n2[nH]c(=O)n(-c3cccc(C(F)(F)F)c3)c2=O)cc1[S+]([O-])CC(F)(F)F (racemic) [Example 158]	2.69	1.10		
Cc1cc(F)c(-n2c(=O)n(C3CC3)c(=O)n2C)cc1[S+]([O-])CC(F)(F)F (single isomer, unassigned) [Example 197]	1.97	1.89		
CCn1[nH]c(=O)n(CC)c1=O [1,4-Diethyl-1,2,4-triazolidine-3,5-dione]			0.14	
CCn1[nH]c(=O)n(-c2ccccc2)c1=O [1-Ethyl-4-phenyl-1,2,4-triazolidine-3,5-dione]			0.91	
Cc1cc(F)c(NCC(C)O)cc1SCC(F)(F)F (stereo not drawn) [1-[2-Fluoro-4-methyl-5-(2,2,2-trifluoroethylsulfanyl)aniline]propan-2-ol]			3.01	
Cn1[nH]c(=O)n(-c2cccc(C(F)(F)F)c2)c1=O [1-methyl-4-[3-(trifluoromethyl)phenyl]-1,2,4-triazolidine-3,5-dione]			1.53	
Cc1cc(F)c(NC(=S)NCC(F)(F)F)cc1SCC(F)(F)F [1-{2-Fluoro-4-methyl-5-[(2,2,2-trifluoroethyl)sulfanyl]phenyl}-3-(2,2,2-trifluoroethyl)thiourea]			3.32	chromatographic logP [2]: 3.24
Cc1cc(F)c(NC(=O)OCCCl)cc1SCC(F)(F)F [2-Chloroethyl N-[2-fluoro-4-methyl-5-(2,2,2-trifluoroethylsulfanyl)phenyl]carbamate]				chromatographic logP [3]: 3.45
CC1(C)OB(c2cc(SCC(F)(F)F)c(Cl)cc2Cl)OC1(C)C [2-{2,4-Dichloro-5-[(2,2,2-trifluoroethyl)sulfanyl]phenyl}-4,4,5,5-tetramethyl-1,3,2-dioxaborolane]			5.68	chromatographic logP [2]: 5.31
Cc1cc(C)c(B2OC(C)(C)C(C)(C)O2)cc1SCC(F)(F)F [2-{2,4-Dimethyl-5-[(2,2,2-trifluoroethyl)sulfanyl]phenyl}-4,4,5,5-tetramethyl-1,3,2-dioxaborolane]			5.75	chromatographic logP [2]: 5.64
Cc1cc(F)c(B2OC(C)(C)C(C)(C)O2)cc1SCC(F)(F)F [2-{2-Fluoro-4-methyl-5-[(2,2,2-trifluoroethyl)sulfanyl]phenyl}-4,4,5,5-tetramethyl-1,3,2-dioxaborolane]			4.91	chromatographic logP [2]: 4.81
CC1(C)OB(c2ccc(Cl)c(SCC(F)(F)F)c2)OC1(C)C [2-{4-Chloro-3-[(2,2,2-trifluoroethyl)sulfanyl]phenyl}-4,4,5,5-tetramethyl-1,3,2-dioxaborolane]			5.27	chromatographic logP [2]: 5.16
COc1ccc(B2OC(C)(C)C(C)(C)O2)cc1SCC(F)(F)F [2-{4-Methoxy-3-[(2,2,2-trifluoroethyl)sulfanyl]phenyl}-4,4,5,5-tetramethyl-1,3,2-dioxaborolane]			4.54	chromatographic logP [2]: 4.46
Cc1cc(F)c(-n2c(=O)[nH]n(C)c2=O)cc1SCC(F)(F)F [4-[2-Fluoro-4-methyl-5-[(2,2,2-trifluoroethyl)sulfanyl]phenyl]-1-methyl-1,2,4-triazolidine-3,5-dione]			2.02	
Cc1cc(F)c(-n2c(=S)n(C3CC3)c(=O)n2C)cc1SCC(F)(F)F [4-cyclopropyl-1-{2-fluoro-4-methyl-5-[(2,2,2-trifluoroethyl)sulfanyl]phenyl}-2-methyl-5-thioxo-1,2,4-triazolidin-3-one]			3.24	chromatographic logP [2]: 3.18
Cc1cc(F)c(-n2c(=O)[nH][nH]c2=O)cc1SCC(F)(F)F [4-{2-Fluoro-4-methyl-5-[(2,2,2-trifluoroethyl)sulfanyl]phenyl}-1,2,4-triazolidine-3,5-dione]			1.82	
C=CCOC(=O)Nc1cc(SCC(F)(F)F)c(C)cc1F [Allyl N-[2-fluoro-4-methyl-5-(2,2,2-trifluoroethylsulfanyl)phenyl]carbamate]				chromatographic logP [3]: 3.59
CCOC(=O)NNC(=O)Nc1cc(SCC(F)(F)F)c(C)cc1F [Ethyl 2-({2-fluoro-4-methyl-5-[(2,2,2-trifluoroethyl)sulfanyl]phenyl}carbamoyl)hydrazinecarboxylate]				chromatographic logP [3]: 2.41
Cc1cc(C)c([S+]([O-])CC(F)(F)F)cc1N1CCNC1=O (stereo not drawn) [Example 4, 1-{2,4-Dimethyl-5-[(2,2,2-trifluoroethyl)sulfinyl]phenyl}imidazolidin-2-one]			1.51	chromatographic logP [2]: 1.52
Cn1c(=O)n(C2CC2)c(=O)n1-c1cc(SCC(F)(F)F)c(F)cc1F [Example 71]	2.67	2.62		

Compound	logP (HCOOH)	logP (neutral)	chromatographic logP [1]	further results
CCC(C)n1c(=O)n(C2CC2)c(=O)n1-c1cc(SCC(F)(F)F)c(C)cc1F (stereo not drawn) [Example 73]	3.86	3.72		
CCC(C)n1c(=O)n(C2CC2)c(=O)n1-c1cc([S+]([O-])CC(F)(F)F)c(C)cc1F (stereo not drawn) [Example 75]	2.73	2.68		
Cc1cc(F)c(-n2c(=O)n(C)c(=O)n2-c2cc(F)c(C#N)cc2F)cc1SCC(F)(F)F [Example 78]	3.40	3.29		
Cc1cc(F)c(-n2c(=O)n(C)c(=O)n2C2CCCC2)cc1SCC(F)(F)F [Example 86]	3.75	3.67		
CCn1c(=O)n(-c2ccccc2)c(=O)n1-c1cc([S+]([O-])CC(F)(F)F)c(C)cc1F (stereo not drawn) [Example 88, 1-Ethyl-2-{2-fluoro-4-methyl-5-[(2,2,2-trifluoroethyl)sulfinyl]phenyl}-4-phenyl-1,2,4-triazolidine-3,5-dione]			2.71	chromatographic logP [2]: 2.66
CCn1c(=O)n(C(C)C)c(=O)n1-c1cc([S+]([O-])CC(F)(F)F)c(C)cc1F (stereo not drawn) [Example 93]	2.58	2.54		
Cc1cc(F)c(-n2c(=O)n(C(C)(C)C)c(=O)n2C)cc1[S+]([O-])CC(F)(F)F (stereo not drawn) [Example 95]	2.69	2.65		
Cc1cc(F)c(-n2c(=O)n(C)c(=O)n2C2C=CCCC2)cc1[S+]([O-])CC(F)(F)F (stereo not drawn) [Example 96]	2.66	2.61		
CCn1c(=O)n(CC)n(-c2ccc(C)c(SCC(F)(F)F)c2)c1=O [Example 100, 1,4-Diethyl-2-{4-methyl-3-[(2,2,2-trifluoroethyl)sulfanyl]phenyl}-1,2,4-triazolidine-3,5-dione]			3.32	chromatographic logP [2]: 3.29
Cc1cc(F)c(N2C(=O)C(=O)N(C3CC3)C2=O)cc1SCC(F)(F)F [Example 102]	3.24			
Cc1cc(F)c(N2C(=O)C(=O)N(CC(F)F)C2=O)cc1[S+]([O-])CC(F)(F)F (stereo not drawn) [Example 103, 1-(2,2-Difluoroethyl)-3-{2-fluoro-4-methyl-5-[(2,2,2-trifluoroethyl)sulfinyl]phenyl}imidazolidine-2,4,5-trione]			2.32	chromatographic logP [2]: 0.87
Cc1cc(F)c(N2C(=O)OCC2C)cc1[S+]([O-])CC(F)(F)F (stereo not drawn) [Example 107, 3-[2-Fluoro-4-methyl-5-(2,2,2-trifluoroethylsulfinyl)phenyl]-4-methyloxazolidin-2-one]			1.79	
CCn1c(=O)n(-c2cc([S+]([O-])CC(F)(F)F)c(C)cc2F)c(=O)n1CC (stereo not drawn) [Example 119, 1,2-Diethyl-4-{2-fluoro-4-methyl-5-[(2,2,2-trifluoroethyl)sulfinyl]phenyl}-1,2,4-triazolidine-3,5-dione]			2.07	
Cc1cc(F)c(-n2c(=O)n(C3CC3)c(=O)n2C)cc1SCC(F)(F)F [Example 128]	3.49	3.45		
Cc1cc(F)c(-n2c(=O)n(C3CC3)c(=O)n2C(C)(C)C)cc1SCC(F)(F)F [Example 144]	4.08	4.07		
Cc1cc(F)c(-n2c(=O)n(C(C)C)c(=O)n2CC(F)(F)F)cc1SCC(F)(F)F [Example 146]	3.85	3.90		
CCn1c(=O)n(CC(C)C)n(-c2cc(SCC(F)(F)F)c(C)cc2F)c1=O [Example 148]	3.82	3.78		
Cc1cc(F)c(-n2c(=O)n(C(C)C)c(=O)n2CC(C)C)cc1SCC(F)(F)F [Example 149]	4.27	4.21		
Cc1cc(F)c(N2C(=O)N(C)C(=O)C2(C)C)cc1[S+]([O-])CC(F)(F)F (stereo not drawn) [Example 216, 1-[2-Fluoro-4-methyl-5-(2,2,2-trifluoroethylsulfinyl)phenyl]-3,5,5-trimethylimidazolidine-2,4-dione]			2.05	
Cc1cc(F)c(NC(=O)C(C)(C)O)cc1SCC(F)(F)F [N-[2-Fluoro-4-methyl-5-(2,2,2-trifluoroethylsulfanyl)phenyl]-2-hydroxy-2-methylpropanamide]			2.81	
OB(O)c1ccc(Cl)c(SCC(F)(F)F)c1 [VIIIa-3, {4-Chloro-3-[(2,2,2-trifluoroethyl)sulfanyl]phenyl}boronic acid]			2.4	chromatographic logP [2]: 2.41
